pIC50: −log10 of the molar value.
Columns and labels:
hNAMPT protein = hNAMPT protein (Homo sapiens (Human), UniProt P43490); assay: NAMPT enzyme assay (TR-FRET/HTRF, BodiPY ligand, anti 6His-Tb); format: binding; conditions: for inhibition at 1 µM: NAMPT inhibition at compound concentration 1 μM, read-out: Percent Inhibition; for pIC50: NAMPT inhibition, IC50 range class, read-out: IC50
Outline: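 Compound or DMSO was incubated for 1 h at room temperature, protected from light, with BodiPY ligand and hNAMPT labelled by terbium anti-6His antibody. The 520 nm to 486 nm emission ratio after 320 nm excitation gave inhibition versus vehicle, from which concentration-response curves yielded IC50.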

PC3 cells = assay: PC3 growth inhibition (Cell-titer glo, 72 hours); format: cell-based; conditions: Homo sapiens, PC-3; compound concentration 1.667 μM; PC3 cells, 72 hours, Cell-titer glo; read-out: Percent Inhibition (PC3 growth inhibition)
Outline: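 Compounds in AIM serum-free medium were applied for 72 h at 37 °C, 5% CO2 to PC3 cells plated overnight from RPMI1640 culture. Luminescence after 10 min CellTiter-Glo, normalised to DMSO, gave % viability at 1 μM or 1.667 μM, or GI50/LD50.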

Sequence of hNAMPT protein (P43490 whole entry): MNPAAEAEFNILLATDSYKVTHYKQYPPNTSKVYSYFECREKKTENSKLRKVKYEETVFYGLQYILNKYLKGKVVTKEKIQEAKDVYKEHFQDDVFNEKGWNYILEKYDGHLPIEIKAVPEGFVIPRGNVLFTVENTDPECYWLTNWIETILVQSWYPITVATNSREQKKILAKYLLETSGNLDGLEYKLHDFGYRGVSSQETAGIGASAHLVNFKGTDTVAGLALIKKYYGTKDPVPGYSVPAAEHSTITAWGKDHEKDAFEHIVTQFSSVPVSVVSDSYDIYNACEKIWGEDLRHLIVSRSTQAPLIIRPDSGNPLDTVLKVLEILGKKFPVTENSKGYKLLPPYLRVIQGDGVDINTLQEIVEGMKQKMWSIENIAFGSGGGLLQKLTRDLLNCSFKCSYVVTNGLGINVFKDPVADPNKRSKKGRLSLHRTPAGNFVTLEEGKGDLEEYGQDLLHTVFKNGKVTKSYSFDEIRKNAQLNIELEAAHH

Compound	inhibition at 1 µM (hNAMPT protein)	pIC50 (hNAMPT protein)	inhibition at 1.667 µM (PC3 cells)
Cc1noc(C)c1COc1nc2ccc(C(=O)NCCCc3ncc[nH]3)cc2nc1-c1ccc(F)cc1 [Compound I-446, 2-[(3,5-dimethylisoxazol-4-yl)methoxy]-3-(4-fluorophenyl)-N-[3-(1H-imidazol-2-yl)propyl]quinoxaline-6-carboxamide]	> 99%	> 7.00	2%
CCOc1cccc(-c2nc3cc(C(=O)NCCCc4ncc[nH]4)ccc3nc2-c2ccc(F)cc2)c1 [Compound I-447, 3-(3-ethoxyphenyl)-2-(4-fluorophenyl)-N-[3-(1H-imidazol-2-yl)propyl]quinoxaline-6-carboxamide]	99%	> 7.00	2%
COc1ccc(-c2nc3cc(C(=O)NCCCc4ncc[nH]4)ccc3nc2-c2ccc(F)cc2)cc1 [Compound I-448, 2-(4-fluorophenyl)-N-[3-(1H-imidazol-2-yl)propyl]-3-(4-methoxyphenyl)quinoxaline-6-carboxamide]	67%	6.30 to 7.00	2%
O=C(NCCCc1ncc[nH]1)c1ccc2nc(-c3ccc(F)cc3)c(-c3cc(F)c(F)c(F)c3)nc2c1 [Compound I-449, 2-(4-fluorophenyl)-N-[3-(1H-imidazol-2-yl)propyl]-3-(3,4,5-trifluorophenyl)quinoxaline-6-carboxamide]	82%	6.30 to 7.00	3%
Cc1ccc(C)c(-c2nc3cc(C(=O)NCCCc4ncc[nH]4)ccc3nc2-c2ccc(F)cc2)c1 [Compound I-450, 3-(2,5-dimethylphenyl)-2-(4-fluorophenyl)-N-[3-(1H-imidazol-2-yl)propyl]quinoxaline-6-carboxamide]	93%	> 7.00	1%
O=C(NCCCc1ncc[nH]1)c1ccc2nc(-c3ccc(F)cc3)c(-c3cc(C(F)(F)F)ccc3F)nc2c1 [Compound I-451, 2-(4-fluorophenyl)-3-[2-fluoro-5-(trifluoromethyl)phenyl]-N-[3-(1H-imidazol-2-yl)propyl]quinoxaline-6-carboxamide]	97%	> 7.00	2%
CC(C)Oc1nc2ccc(C(=O)NCc3ccc4nccn4c3)cc2nc1-c1ccc(F)cc1 [Compound I-452, 3-(4-Fluorophenyl)-N-(imidazo[1,2-a]pyridin-6-ylmethyl)-2-isopropoxyquinoxaline-6-carboxamide]	75%	6.30 to 7.00	3%
O=C(NCCCc1ncc[nH]1)c1ccc2nc(-n3cnc4ccccc43)c(-c3ccc(F)cc3)nc2c1 [Compound I-453, 2-(1H-benzimidazol-1-yl)-3-(4-fluorophenyl)-N-[3-(1H-imidazol-2-yl)propyl]quinoxaline-6-carboxamide]	88%	6.30 to 7.00	3%
O=C(NCCCc1ncc[nH]1)c1ccc2nc(OCc3ccccc3Cl)c(-c3ccc(F)cc3)nc2c1 [Compound I-454, 2-[(2-chlorobenzyl)oxy]-3-(4-fluorophenyl)-N-[3-(1H-imidazol-2-yl)propyl]quinoxaline-6-carboxamide]	95%	> 7.00	2%
O=C(NCCCc1ncc[nH]1)c1ccc2nc(-c3ccc(F)cc3)c(-c3ccc(Cl)cc3F)nc2c1 [Compound I-455, 3-(4-chloro-2-fluorophenyl)-2-(4-fluorophenyl)-N-[3-(1H-imidazol-2-yl)propyl]quinoxaline-6-carboxamide]	80%	6.30 to 7.00	3%
CN(C)C1CCC(Oc2nc3ccc(C(=O)NCCCc4ncc[nH]4)cc3nc2-c2ccc(F)cc2)CC1 (stereo not drawn) [Compound I-456, 2-{[4-(dimethylamino)cyclohexyl]oxy}-3-(4-fluorophenyl)-N-[3-(1H-imidazol-2-yl)propyl]quinoxaline-6-carboxamide]	> 99%	> 7.00	2%
COC1CCN(c2nc3ccc(C(=O)NCCCc4ncc[nH]4)cc3nc2-c2ccc(F)cc2)C1 (stereo not drawn) [Compound I-457, 3-(4-fluorophenyl)-N-[3-(1H-imidazol-2-yl)propyl]-2-(3-methoxypyrrolidin-1-yl)quinoxaline-6-carboxamide]	98%	> 7.00	2%
N#Cc1cccc(-c2nc3cc(C(=O)NCCCc4ncc[nH]4)ccc3nc2-c2ccc(F)cc2)c1 [Compound I-458, 3-(3-cyanophenyl)-2-(4-fluorophenyl)-N-[3-(1H-imidazol-2-yl)propyl]quinoxaline-6-carboxamide]	81%	6.30 to 7.00	2%
O=C(NCCCc1ncc[nH]1)c1ccc2nc(OCc3ncc[nH]3)c(-c3ccc(F)cc3)nc2c1 [Compound I-459, 3-(4-fluorophenyl)-2-(1H-imidazol-2-ylmethoxy)-N-[3-(1H-imidazol-2-yl)propyl]quinoxaline-6-carboxamide]	47%	6.00 to 6.30	> 99%
Cn1ccc(COc2nc3ccc(C(=O)NCCCc4ncc[nH]4)cc3nc2-c2ccc(F)cc2)n1 [Compound I-460, 3-(4-fluorophenyl)-N-[3-(1H-imidazol-2-yl)propyl]-2-[(1-methyl-1H-pyrazol-3-yl)methoxy]quinoxaline-6-carboxamide]	99%	> 7.00	2%
O=C(NCCCc1ncc[nH]1)c1ccc2nc(-c3ccc(F)cc3)c(-c3ccc4c(c3)OCO4)nc2c1 [Compound I-461, 3-(1,3-benzodioxol-5-yl)-2-(4-fluorophenyl)-N-[3-(1H-imidazol-2-yl)propyl]quinoxaline-6-carboxamide]	86%	6.30 to 7.00	2%
C#CCOc1nc2ccc(C(=O)NCCCc3ncc[nH]3)cc2nc1-c1ccc(F)cc1 [Compound I-462, 3-(4-fluorophenyl)-N-[3-(1H-imidazol-2-yl)propyl]-2-(prop-2-yn-1-yloxy)quinoxaline-6-carboxamide]	95%	> 7.00	2%
O=C(NCCCc1ncc[nH]1)c1ccc2nc(-c3ccc(F)cc3)c(-c3cccc(Cl)c3)nc2c1 [Compound I-463, 3-(3-chlorophenyl)-2-(4-fluorophenyl)-N-[3-(1H-imidazol-2-yl)propyl]quinoxaline-6-carboxamide]	97%	> 7.00	3%
O=C(NCc1nc2cnccc2[nH]1)c1ccc2nc(-c3ccc(F)cc3)c(-c3ccc(F)cc3)nc2c1 [Compound I-464, 2,3-bis(4-fluorophenyl)-N-(1H-imidazo[4,5-c]pyridin-2-ylmethyl)quinoxaline-6-carboxamide]	> 99%	> 7.00	0%
O=C(NCCCc1ncc[nH]1)c1ccc2nc(N3CCCC3)c(-c3ccc(F)cc3)nc2c1 [Compound I-465, 3-(4-fluorophenyl)-N-[3-(1H-imidazol-2-yl)propyl]-2-(pyrrolidin-1-yl)quinoxaline-6-carboxamide]	98%	> 7.00	2%
COc1cc(-c2nc3cc(C(=O)NCCCc4ncc[nH]4)ccc3nc2-c2ccc(F)cc2)c(F)cn1 [Compound I-466, 3-(5-fluoro-2-methoxy-4-pyridyl)-2-(4-fluorophenyl)-N-[3-(1H-imidazol-2-yl)propyl]quinoxaline-6-carboxamide]	95%	> 7.00	2%
COc1ccc(C)c(-c2nc3cc(C(=O)NCCCc4ncc[nH]4)ccc3nc2-c2ccc(F)cc2)c1 [Compound I-467, 2-(4-fluorophenyl)-N-[3-(1H-imidazol-2-yl)propyl]-3-(5-methoxy-2-methylphenyl)quinoxaline-6-carboxamide]	94%	> 7.00	2%
O=C(NCCCc1ncc[nH]1)c1ccc2nc(O[C@H]3CCOC3)c(-c3ccc(F)cc3)nc2c1 [Compound I-468, 3-(4-fluorophenyl)-N-[3-(1H-imidazol-2-yl)propyl]-2-[(3S)-tetrahydrofuran-3-yloxy]quinoxaline-6-carboxamide]	99%	> 7.00	2%
O=C(NCCCc1ncc[nH]1)c1ccc2nc(OCc3nccs3)c(-c3ccc(F)cc3)nc2c1 [Compound I-469, 3-(4-fluorophenyl)-N-[3-(1H-imidazol-2-yl)propyl]-2-(1,3-thiazol-2-ylmethoxy)quinoxaline-6-carboxamide]	98%	> 7.00	2%
COc1ccc(-c2nc3cc(C(=O)NCCCc4ncc[nH]4)ccc3nc2-c2ccc(F)cc2)cc1F [Compound I-470, 3-(3-fluoro-4-methoxyphenyl)-2-(4-fluorophenyl)-N-[3-(1H-imidazol-2-yl)propyl]quinoxaline-6-carboxamide]	81%	6.30 to 7.00	2%
Cc1cc(-c2nc3cc(C(=O)NCCCc4ncc[nH]4)ccc3nc2-c2ccc(F)cc2)ccc1F [Compound I-471, 3-(4-fluoro-3-methylphenyl)-2-(4-fluorophenyl)-N-[3-(1H-imidazol-2-yl)propyl]quinoxaline-6-carboxamide]	> 99%	> 7.00	2%
